Results taken from ChEMBL document CHEMBL1132911, “Cytotoxic halogenoacrylic derivatives of distamycin A” (Bioorg Med Chem Lett, 2000).

Tests used:
L1210 [1] = experiment: In vitro cytotoxicity was measured after 4 hr of exposure against L1210 murine leukemia cells; assay type: functional, Mus musculus
L1210 [2] = experiment: In vitro cytotoxicity was measured after 48 hr of exposure against L1210 murine leukemia cells; assay type: functional, cell-based; conditions: Mus musculus, L1210, 48 h
Mus musculus [3] = experiment: In vivo antileukemic activity against L1210 murine leukemia cell after intravenous administration in mice expressed as optimal (non toxic) dose; assay type: functional
Mus musculus [4] = experiment: In vivo antileukemic activity against L1210 murine leukemia in mice after iv administration of compound expressed as T/C ie median survival time of treated versus untreated mice (10); assay type: functional
Mus musculus [5] = experiment: In vivo antileukemic activity against L1210 murine leukemia after intravenous administration in mice expressed as optimal (non toxic) dose; assay type: functional

| SMILES | IPol (L1210 [1]) | IC50 (L1210 [2]) | OD (Mus musculus [3]) | T/C (Mus musculus [4]) | also measured |
| --- | --- | --- | --- | --- | --- |
| Cl.Cn1cc(NC(=O)c2cc(NC(=O)c3cc(NC(=O)/C=C\Cl)cn3C)cn2C)cc1C(=O)NCCC(=N)N | >50 µM | – | – | – | – |
| C=CC(=O)Nc1cc(C(=O)Nc2cc(C(=O)Nc3cc(C(=O)NCCC(=N)N)n(C)c3)n(C)c2)n(C)c1.Cl | >50 µM | – | – | – | – |
| C=C(F)C(=O)Nc1cc(C(=O)Nc2cc(C(=O)Nc3cc(C(=O)Nc4cc(C(=O)NCCC(=N)N)n(C)c4)n(C)c3)n(C)c2)n(C)c1 | – | > 0.7 µM | – | – | – |
| C=C(Br)C(=O)Nc1cc(C(=O)Nc2cc(C(=O)NCCC(=N)N)n(C)c2)n(C)c1 | – | > 1.3 µM | – | – | – |
| C=C(Cl)C(=O)Nc1cc(C(=O)Nc2cc(C(=O)Nc3cc(C(=O)NCCC(=N)N)n(C)c3)n(C)c2)n(C)c1.Cl | 1.47 µM | – | 12.5 mg/kg | 117% | – |
| C=C(Br)CNc1cc(C(=O)Nc2cc(C(=O)Nc3cc(C(=O)NCCC(=N)N)n(C)c3)n(C)c2)n(C)c1 | – | > 1.6 µM | – | – | – |
| Cl.Cn1cc(NC(=O)c2cc(NC(=O)c3cc(NC(=O)/C=C/Cl)cn3C)cn2C)cc1C(=O)NCCC(=N)N | >100 µM | – | – | – | – |
| C=C(Br)C(=O)Nc1cc(C(=O)Nc2cc(C(=O)Nc3cc(C(=O)NCCC(=N)N)n(C)c3)n(C)c2)n(C)c1.Cl | 0.1035 µM | – | – | 100% | OD (Mus musculus [5]): 12.5 mg/kg |
| C=C(Br)C(=O)Nc1cc(C(=O)Nc2cc(C(=O)Nc3cc(C(=O)Nc4cc(C(=O)Nc5cc(C(=O)NCCC(=N)N)n(C)c5)n(C)c4)n(C)c3)n(C)c2)n(C)c1.Cl | – | 0.023 µM | 0.78 mg/kg | 167% | – |
| C=C(Br)C(=O)Nc1cc(C(=O)NCCC(=N)N)n(C)c1 | – | > 13 µM | – | – | – |
| C=C(Br)C(=O)Nc1cc(C(=O)Nc2cc(C(=O)Nc3cc(C(=O)Nc4cc(C(=O)NCCC(=N)N)n(C)c4)n(C)c3)n(C)c2)n(C)c1.Cl | – | – | 1.56 mg/kg | 200% | – |
| C=C(Cl)C(=O)Nc1cc(C(=O)Nc2cc(C(=O)Nc3cc(C(=O)Nc4cc(C(=O)NCCC(=N)N)n(C)c4)n(C)c3)n(C)c2)n(C)c1.Cl | – | 0.0038 µM | 1.56 mg/kg | 133% | – |
| C=C(F)C(=O)Nc1cc(C(=O)Nc2cc(C(=O)Nc3cc(C(=O)NCCC(=N)N)n(C)c3)n(C)c2)n(C)c1 | – | > 0.8 µM | – | – | – |
